According to patent US20160257651A1, “NOVEL COMPOUND WITH ANTIBACTERIAL ACTIVITY” (priority 2013, published 2016):
Converted amounts (≈) assume the structure as drawn. “And” between values parts separate entries of the source, which are not always exact repeats. Identical values can stand only once.

Legend:
GyrA (wt) + GyrB (wt) = biological target: T1, GyrA (wt) + GyrB (wt) (Staphylococcus aureus, UniProt P20831); assay: DNA cleavage assay using DNA gyrase; format: biochemical; conditions: for Ratio of cleaved DNA (%) / Ratio of substrate plasmid DNA (%): GyrA (wt) + GyrB (wt)
T1 construct: made in house; host or cells: E. coli BL21(DE3)
Procedure: (§1) To the culture medium of the resulting transformed Escherichia coli 1 mM isopropyl-8-thiogalactopyranoside (produced by Wako Pure Chemical Industries) was added to induce expression of maltose-binding GyrA(wt), maltose-binding GyrB(wt), or maltose-binding mutant GyrA(S84L), and the bacterium was cultured overnight at 25° C.
(§2) Then, each disrupted cell suspension was added to a column filled with an amylose resin covalently bound with maltose (produced by Novagen). A buffer (20 mM Tris-HCl (pH 8.0), 200 mM sodium chloride, 1 mM EDTA) containing 10 mM maltose was added to the column to elute the maltose-binding GyrA(wt), maltose-binding GyrB(wt), and maltose-binding mutant GyrA(S84L).
To each eluate, 4 units/1 mL of the eluate of protease (Factor Xa, produced by Amersham) was added, and the mixture was left standing at 25° C. for 3 hours and 30 minutes to cleave the maltose-binding proteins, GyrA(wt), GyrB(wt), and mutant GyrA(S84L), from the maltose-binding GyrA(wt), maltose-binding GyrB(wt), and maltose-binding mutant GyrA(S84L).
Then, GyrA(wt), GyrB(wt), and mutant GyrA(S84L) were concentrated by using an ultrafiltration unit (YM-50 Filter Unit, produced by Millipore).
The concentrated GyrA(wt), GyrB(wt), and mutant GyrA(S84L) were each suspended in a buffer (35 mM Tris-HCl (pH 7.5), 24 mM potassium chloride, 6 mM magnesium chloride, 1.8 mM spermidine, 0.36 mg/mL bovine serum albumin, 5 mM DTT, 50 volume % glycerol) at a concentration of 1 μg/μL for GyrA(wt), 2 μg/μL for GyrB(wt), or 1 μg/μL for mutant GyrA(S84L).
Levofloxacin was added at a final concentration of […] as control for an index of the enzymatic activity.
The reaction solution was left standing at 25° C. for 30 minutes to allow the reaction. Subsequently, a 6 mass % solution of sodium laurylsulfate (2 μL) and a 5 mg/mL solution of Proteinase K (2 μL, produced by Wako Pure Chemical Industries) were added to the reaction solution, and the mixture was left standing at 37° C. for 30 minutes to inactivate GyrA(wt) and GyrB(wt) bound to DNA.
Then, the whole volume of the reaction solution treated with Proteinase K was subjected to electrophoresis on 1 mass % agarose gel to visualize the resultants of the reaction.
(§3) Then, the total value of the intensities of the bands of “S”, “L”, and “N” was calculated for each concentration, and the result was used as “total DNA amount” (equation 1 mentioned below). Further, the total value of the intensities of the bands of “L” and “N” was also calculated, and the result was used as “amount of cleaved DNA” (equation 2 mentioned below). Then, the ratio (%) of the amount of the substrate plasmid DNA to the total DNA amount was calculated in accordance with the following equation 3, and the ratio (%) of the amount of the cleaved DNA to the total DNA amount was calculated in accordance with the following equation 4.
The DNA cleavage assay is a method for evaluating an inhibitory action of an agent for DNA gyrase by detecting whether or not DNAs cleaved by DNA gyrase are recombined.

[1] = tested on: E. coli strain 1709 plus PABN; assay: Antibacterial activity against Escherichia coli in combination with efflux pump inhibitor PAβN; conditions: E coli plus PABN 40 mg/L, strain 1709, Quinolone Sus
Source text: (§4) The numerical values in the tables indicate MIC (mg/L), Res means resistant bacterium, and Sus means susceptible bacterium.
(§5) Antibacterial activities against Escherichia coli of the compounds shown Table 19 were examined by the following method.
(§6) After completion of the culture, the cells were suspended in fresh TBS to prepare a cell suspension showing an absorbance of 0.3 at 578 nm.

E. coli strain 1708 = assay: Antibacterial activity against Escherichia coli
Source text: as §4, §5, §6

[2] = tested on: E. coli strain 1708 plus PABN; assay: Antibacterial activity against Escherichia coli in combination with efflux pump inhibitor PAβN; conditions: E coli plus PABN 40 mg/L, strain 1708, Quinolone Res
Source text: as §4, §5, §6

GyrA (S84L) + GyrB (wt) = biological target: T2, GyrA (S84L) + GyrB (wt) (Staphylococcus aureus, UniProt P20831, S84L); assay: DNA cleavage assay using DNA gyrase; format: biochemical
T2 construct: made in house; host or cells: E. coli BL21(DE3)
Procedure: as §1
as §2, with “GyrA(S84L). […]” for “GyrA(S84L).”
as §3

E. coli strain 1709 = assay: Antibacterial activity against Escherichia coli
Source text: as §4, §5, §6

C[C@H]1COc2c(N3CCN(C)CC3)c(F)cc3c(=O)c(C(=O)O)cn1c23 [LVX, levofloxacin]
Ratio of cleaved DNA (%) (GyrA (wt) + GyrB (wt); concentration 16 μg/mL): 78% | Ratio of substrate plasmid DNA (%) (GyrA (wt) + GyrB (wt); concentration 16 μg/mL): 22%

O=c1cc(CO)c2cc(F)c(-c3ccc(O)cc3)cc2n1C1CC1 [J-131CP, 1-cyclopropyl-6-fluoro-4-(hydroxymethyl)-7-(4-hydroxyphenyl)-1,2-dihydroquinolin-2-one]
MIC [1]: ≦0.06 mg/L | MIC (E. coli strain 1708): 128 µg/mL (≈ 393 µM) | MIC [2]: 0.25 µg/mL | Ratio of cleaved DNA (%) (GyrA (wt) + GyrB (wt); concentration 0.125 μg/mL): 12% | Ratio of substrate plasmid DNA (%) (GyrA (wt) + GyrB (wt); concentration 0.125 μg/mL): 88% | Ratio of cleaved DNA (%) (GyrA (wt) + GyrB (wt); concentration 0.25 μg/mL): 19% | Ratio of substrate plasmid DNA (%) (GyrA (wt) + GyrB (wt); concentration 0.25 μg/mL): 81% | Ratio of cleaved DNA (%) (GyrA (wt) + GyrB (wt); concentration 0.5 μg/mL): 23% | Ratio of substrate plasmid DNA (%) (GyrA (wt) + GyrB (wt); concentration 0.5 μg/mL): 77% | Ratio of cleaved DNA (%) (GyrA (wt) + GyrB (wt); concentration 1 μg/mL): 47% | Ratio of substrate plasmid DNA (%) (GyrA (wt) + GyrB (wt); concentration 1 μg/mL): 53% | Ratio of cleaved DNA (%) (GyrA (wt) + GyrB (wt); concentration 2 μg/mL): 77% | Ratio of substrate plasmid DNA (%) (GyrA (wt) + GyrB (wt); concentration 2 μg/mL): 23% | Ratio of cleaved DNA (%) (GyrA (wt) + GyrB (wt); concentration 4 μg/mL): 81% | Ratio of substrate plasmid DNA (%) (GyrA (wt) + GyrB (wt); concentration 4 μg/mL): 19% | IC50 (GyrA (wt) + GyrB (wt); IC50, GyrA(wt) and GyrB(wt)): 6.15 µM and 6.2 µM | IC50 (GyrA (S84L) + GyrB (wt); IC50, GyrA (S84L) + GyrB (wt), calculated from the ratio of cleaved DNA): 3.07 µM | IC50 (GyrA (S84L) + GyrB (wt); IC50, GyrA(S84L) and GyrB(wt)): 3.1 µM | MIC (E. coli strain 1709): 8 µg/mL (≈ 24.6 µM)
